This is an account of results in patent US20130178436A1, “COMPOSITION FOR PREVENTING, IMPROVING, OR TREATING RENAL DISEASE INCLUDING MAILLARD BROWNING REACTION PRODUCTS OF PANAX SPECIES PLANT EXTRACT” (Korea Institute of Science and Technology, priority 2012, published 2013).

Marks after values point to notes of the source that are not given here.

The test system of one data set is LLC-PK1 cells. Put plainly: Protective activity for renal cells against AAPH-induced oxidative damage (MTT viability). Type of data set: cell-based. The settings on record: 10 mM AAPH. The source says: Renal cells, i.e., LLC-PK1 cell lines, are vulnerable to oxidative damage, and AAPH, which is a radical releasing agent, combines with oxygen molecules at a very rapid speed to produce a peroxyl radical and trigger lipid peroxidation, resulting in cytotoxicity (Miki et al., Arch. Biochem. Biophy., 258(2), 373-380, 1987). Thus, a protective activity for renal cells may be evaluated using such an oxidative damage of the LLC-PK1 cell lines using AAPH.
A protective effect for nephrotoxicity was evaluated using renal cells (LLC-PK1) with reference to a method reported in the publication (Yokozawa et al., Food Chem., 48, pp5068-5073, 2000) as follows.
First, the LLC-PK1 cells were cultured in an incubator with conditions of 37° C., 95% air, and 5% CO2 by using a DMEM/F12 medium (Gibco BRL Life Technologies, Grand Island, NY, USA) supplemented with 5% fetal bovine serum (Gibco BRL Life Technologies), 50 units/ml of penicillin G, and 50 μg/ml of streptomycin (Gibco BRL Life Technologies). The incubated LLC-PK1 cells were introduced into a 96-well incubation plate at a concentration of 10^4 […] and then stabilized for 2 hours. Afterwards, a radical generating reagent (i.e., 10 mM AAPH dissolved in a medium) was added to each well and cultured for 24 hours, and 50 μl of an MTT (1 mg/ml) reagent was then added to each well and incubated at 37° C. 4 hours thereafter, the medium containing MTT was removed and 100 μl of dimethyl sulfoxide was added to each well. Then, absorbance of the sample was measured using a detection wavelength of 540 nm in a SPECTRAmax 340PC (Molecular Devices, Sunnyvale, Calif., USA) microplate reader and a viability of the LLC-PK1 cells was measured using the absorbance thereof.

Data set [1] is described as follows: DPPH radical scavenging ability (antioxidative activity). Type of data set: biochemical. Particulars: 60 μM DPPH, 30 minutes; FIGS. 5 to 13. As to the method:
A DPPH radical scavenging ability was evaluated using a modified method from that described by Hatano et al (Hatano et al., Chem. Pharm. Bull., 37(8), pp 2016-2021, 1989). 100 μl of 60 μM DPPH was added to 100 μl of each of a plurality of sample solutions, the resultant solution was stirred and left for 30 minutes, and the absorbance of the resultant mixture was measured at 540 nm. An antioxidative activity (electron donating ability) was confirmed by measuring a decreasing ratio in absorbances of experimental groups comparing with a control of the sample solutions.

Turning to `N=C(N)NN` [aminoguanidine], in the data set on LLC-PK1 cells (Sus scrofa, sample 10 μg/ml, 24 hours, MTT, read-out: Cell viability), the viability at 10 µg/mL stood at 86.7 ± 14.2%. In addition, in the data set on LLC-PK1 cells (Sus scrofa, sample 100 μg/ml, 24 hours, MTT, read-out: Cell viability), the viability at 100 µg/mL came out at 88 ± 4.1%.
`CC(C)=CCC[C@](C)(O[C@@H]1O[C@H](CO)[C@@H](O)[C@H](O)[C@H]1O)[C@H]1CC[C@]2(C)[C@@H]1[C@H](O)C[C@@H]1[C@@]3(C)CC[C@H](O)C(C)(C)[C@@H]3[C@@H](O[C@@H]3O[C@H](CO)[C@@H](O)[C@H](O)[C@H]3O[C@@H]3O[C@@H](C)[C@H](O)[C@@H](O)[C@H]3O)C[C@]12C` [ginsenoside Re]: the “protective activity for renal cells (in words)” value in the data set on LLC-PK1 cells was “inhibited cell damage at a high concentration”. In addition, the Cell viability with LLC-PK1 cells (sample 10 μg/ml, 24 hours, MTT) is given as 89.6 ± 9.7^a %. Moreover, the “DPPH radical scavenging ability (in words)” value in data set [1] was “low reactive oxygen scavenging ability”.

For orientation: viability means a read-out of living cells in per cent, often relative to untreated cells.
